Laboratory results reported in patent US8192962B2, “Processes for detecting toxic substances” (Daikin Industries, Ltd., priority 2001, dated 2012).

Tested on: Genes belonging to other category
Test: DNA chip mRNA expression in yeast, genes belonging to other category (Table 9)
Format: cell-based, Saccharomyces cerevisiae S288C
Summary of the method: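 Measured as treated-to-untreated fluorescence ratio on a full-genome yeast DNA chip. Cells (S288C, YPD, 25° C.) were exposed in log phase for two hours to one chemical, dosed to curb growth without killing.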

Measured: The level of expressed mRNA in the presence of chemical substance/The level of expressed mRNA in the absence of chemical substance

C=CC=O [(14), acrolein]
1.2: yeast gene YKL193C | yeast gene YLR362W | yeast gene YMR276W | yeast gene YOR036W | yeast gene YOR259C
1.3: yeast gene YJL053W | yeast gene YKL041W | yeast gene YLR093C | yeast gene YLR251W | yeast gene YNR010W | yeast gene YOL164W | yeast gene YPL109C
2.0: yeast gene YKL103C
2.5: yeast gene YKL196C | yeast gene YLR250W | yeast gene YOR265W
1.0: yeast gene YKL139W | yeast gene YLR266C | yeast gene YMR314W | yeast gene YOR117W | yeast gene YOR229W | yeast gene YPL149W | yeast gene YPR108W | yeast gene YPR185W
1.9: yeast gene YIR039C | yeast gene YNL333W
2.8: yeast gene YLR178C | yeast gene YMR094W
0.5: yeast gene YKL096W | yeast gene YLR391W | yeast gene YMR219W
1.4: yeast gene YKL013C | yeast gene YKR098C | yeast gene YOL109W | yeast gene YOR362C
0.7: yeast gene YJR004C | yeast gene YLR136C | yeast gene YLR429W | yeast gene YOR132W
1.1: yeast gene YJL073W | yeast gene YMR104C | yeast gene YNL093W | yeast gene YOR198C
0.4: yeast gene YNL007C
1.8: yeast gene YJL089W | yeast gene YKR014C | yeast gene YOR261C | yeast gene YPR103W
0.6: yeast gene YOR355W | yeast gene YOR383C
1.6: yeast gene YJL035C | yeast gene YKL117W | yeast gene YLR107W | yeast gene YML092C | yeast gene YMR226C
1.5: yeast gene YJL146W | yeast gene YLR118C | yeast gene YLR327C | yeast gene YMR091C | yeast gene YNR007C | yeast gene YOR257W | yeast gene YOR327C | yeast gene YOR367W | yeast gene YPL218W | yeast gene YPR015C | yeast gene YPR073C
0.8: yeast gene YKL008C | yeast gene YKL039W | yeast gene YKL165C | yeast gene YLR120C | yeast gene YMR275C | yeast gene YNL006W | yeast gene YOR124C | yeast gene YOR288C | yeast gene YPL089C | yeast gene YPL154C
2.2: yeast gene YJR086W | yeast gene YKL070W | yeast gene YLR356W | yeast gene YMR004W | yeast gene YOR157C
2.6: yeast gene YIR024C | yeast gene YJL116C
2.1: yeast gene YJL030W | yeast gene YJR099W | yeast gene YNR069C | yeast gene YOL038W | yeast gene YOR185C | yeast gene YOR298W
0.9: yeast gene YJL164C | yeast gene YJL210W | yeast gene YMR027W | yeast gene YMR262W | yeast gene YOL013C | yeast gene YOR181W
